structure (smiles),measurement,value
"Oc1ccc(C2CCCC2)c(O)c1 [Form A, 4-cyclopentyl resorcinol]",melting point,65 to 66.5 °C

# — US7390838B2, “Depigmenting agents” (Pfizer Inc., priority 2003, dated 2008)
